Measured values reported in patent US20230149409A1, “TREATMENT OF HUMAN PAPILLOMAVIRUS-ASSOCIATED CANCERS BY PD-L1 INHIBITORS” (priority 2021, published 2023).

Columns and labels:
[1] = target: T1, PD-⅟PD-L1 (recombinant human PD-L1 protein and human PD-1 protein) (Homo sapiens, UniProt Q9NZQ7); test: Homogeneous Time-Resolved Fluorescence (HTRF) PD-1/PD-L1 binding assay; settings: 3 nM PD1, 10 nM PD-L1, 25° C., PBS pH 7.4
T1 construct: Recombinant human PD-L1 protein (19-238) with a His-tag at the C-terminus; purchased AcroBiosystems PD1-H5229 (PD-L1); PD1-H5257 (PD-1)
T1 sequence (Q9NZQ7 19-238): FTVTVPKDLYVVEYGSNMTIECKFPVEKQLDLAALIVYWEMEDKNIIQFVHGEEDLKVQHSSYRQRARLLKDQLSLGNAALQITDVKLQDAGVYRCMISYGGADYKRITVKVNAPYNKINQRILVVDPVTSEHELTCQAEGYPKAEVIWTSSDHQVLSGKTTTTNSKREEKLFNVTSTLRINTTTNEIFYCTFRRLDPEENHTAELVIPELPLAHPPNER

[2] = target: T2, PD-L1 on CD14+ cells in human whole blood (Homo sapiens, UniProt Q9NZQ7); test: PD-L1 whole blood internalization assay; type: cell-based; settings: 1 ng/mL interferon γ, CD14+ gated, 24 hour
T2 construct: Cells were gated on CD14+ (BD Biosciences) and PD-L1 expression determined by mean fluorescence intensity; host or cells: CD14+ cells in normal human whole blood, stimulated with human interferon gamma
T2 sequence (Q9NZQ7 19-290): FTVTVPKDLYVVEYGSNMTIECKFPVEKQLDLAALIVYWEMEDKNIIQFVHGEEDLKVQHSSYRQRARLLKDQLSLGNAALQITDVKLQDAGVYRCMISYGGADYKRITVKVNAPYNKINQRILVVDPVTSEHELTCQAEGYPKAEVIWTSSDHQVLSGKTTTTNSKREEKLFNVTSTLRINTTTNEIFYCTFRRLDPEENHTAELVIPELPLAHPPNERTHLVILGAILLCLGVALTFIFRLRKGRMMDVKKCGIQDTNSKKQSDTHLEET
In short: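 Normal human whole blood exposed to compound concentration range plus 1 ng/mL IFN-γ for 18–20 h at 37 °C, then stained for PD-L1 and CD14, red cells lysed/fixed. PD-L1 MFI measured on CD14+ gated cells by flow cytometry; IC50 from percent inhibition versus log concentration fit.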

[3] = system: select advanced solid tumors (HPV+ carcinomas); test: Phase 1 open-label clinical trial of Compound 24; type: in vivo, human; design: key: complete response (CR); partial response (PR); stable disease (SD); progressive disease (PD)
Description: Two open-label, nonrandomized, global multicenter Phase 1 studies in participants with select advanced solid tumors are being conducted for Compounds 24 and 30 in Table 1 supra. In addition to the primary endpoint of determining safety, tolerability, PAD and/or maximum tolerated dose (MTD) of each compound, the studies are exploring preliminary efficacy (complete response (CR), partial response (PR), stable disease (SD), or progressive disease (PD)) in participants with select advanced cancers, including virally mediated tumors such as HPV+ carcinomas. HPV+ tumors can be determined by a local laboratory using p16 IHC, polymerase chain reaction methods, or other locally-available method to detect HPV. Results for patients having solid tumors whose HPV+ status was confirmed, suspected or negative are shown below for Compound 24 and Compound 30 in Tables 4 and 5, respectively.

Cc1c(Nc2nc(C(F)F)nc3cc(CN4CC[C@@H](O)C4)cnc23)cccc1-c1cccc(-c2nc3cc(CN4CCC(C(=O)O)CC4)cc(C#N)c3o2)c1C [Compound 24]
PD: Best Overall Response ([3]; Patient 2, 200 mg BID, Cervical cancer (clear cell), HPV/p16 status Not determined) | Best Overall Response ([3]; Patient 7, 200 mg BID, Anal carcinoma (SCC), Positive unknown type) | Best Overall Response ([3]; Patient 8, 400 mg BID, Anal carcinoma, HPV 16 positive) | Best Overall Response ([3]; Patient 13, 400 mg BID, Rectovaginal septum (SCC), P16+, HPV 16) | Best Overall Response ([3]; Patient 14, 600 mg QD, Anal carcinoma, HPV 16) | Best Overall Response ([3]; Patient 15, 800 mg QD, Anal carcinoma, HPV 16) | Best Overall Response ([3]; Patient 16, 800 mg QD, Vulvar (SCC), HPV/p16 status Not determined) | Best Overall Response ([3]; Patient 18, 800 mg QD, Cervical cancer (SCC), P16 positive) | Best Overall Response ([3]; Patient 19, 800 mg QD, Anal cancer, HPV 16 positive) | Best Overall Response ([3]; Patient 20, 800 mg QD, Anal cancer, HPV 16 positive)
PR: Best Overall Response ([3]; Patient 6, 400 mg BID, Cervical cancer (SCC), HPV 16 positive) | Best Overall Response ([3]; Patient 11, 400 mg BID, Anal carcinoma (SCC), HPV/p16 status Not determined)
< 100 nM: IC50 [2]
SD: Best Overall Response ([3]; Patient 1, 200 mg QD, Cervical cancer (AC), HPV/p16 status Not determined) | Best Overall Response ([3]; Patient 3, 400 mg BID, Anal carcinoma, HPV 16 positive) | Best Overall Response ([3]; Patient 4, 400 mg BID, Anal carcinoma, HPV 16 positive) | Best Overall Response ([3]; Patient 5, 300 mg BID, Vaginal cancer (SCC), HPV 16 positive) | Best Overall Response ([3]; Patient 9, 600 mg QD, Anal carcinoma (rectovaginal), HPV 16,33,31 positive) | Best Overall Response ([3]; Patient 10, 400 mg BID, Cervical cancer (AC), HPV 16 positive) | Best Overall Response ([3]; Patient 12, 600 mg QD, Anal carcinoma (SCC), HPV/p16 status Not determined) | Best Overall Response ([3]; Patient 21, 300 mg BID, Anal cancer, HPV 16)
< 10 nM: IC50 [1]
